Target: P70S6K (T412E mutant) (Homo sapiens (Human), UniProt P23443, T412E)
Assay: P70S6K enzyme assay
Format: biochemical
Settings: 3 nM P70S6K T412E mutant, 24 μM ATP, 1 μM FITC-AHA-AKRRRLSSLRA-OH substrate peptide, 90 min at 25° C.
Experimental: The IC50 values reported for the compounds in the Experimental section were derived from the following protocol for the p70S6K enzyme assay.
P70S6K inhibitor compounds were diluted and plated in 96 well plates. A reaction mixture including the following components was then added to the compound plate to initiate the enzyme reaction; P70S6K (3 nM, T412E mutant, Millipore) was mixed with 24 μM ATP in an assay buffer containing 100 mM Hepes (pH 7.5), 5 mM MgCl2, 1 mM DTT, 0.015% Brij and 1 μM of the substrate peptide FITC-AHA-AKRRRLSSLRA-OH (derived from the S6 ribosomal protein sequence, FITC=fluorescein isothiocyanate, AHA=6-aminohexanoic acid). The reaction was incubated for 90 min at 25° C., before the addition of 10 mM EDTA to stop the reaction. The proportion of substrate and product (phosphorylated) peptide was analysed on a Caliper Life Sciences Lab Chip 3000, using a pressure of −1.4 psi, and upstream and downstream voltages of −3000 and −700 respectively. Product peaks were resolved before substrate peaks on the resulting chromatograms.

P70S6K (T412E mutant), sequence (P23443 whole entry T412E): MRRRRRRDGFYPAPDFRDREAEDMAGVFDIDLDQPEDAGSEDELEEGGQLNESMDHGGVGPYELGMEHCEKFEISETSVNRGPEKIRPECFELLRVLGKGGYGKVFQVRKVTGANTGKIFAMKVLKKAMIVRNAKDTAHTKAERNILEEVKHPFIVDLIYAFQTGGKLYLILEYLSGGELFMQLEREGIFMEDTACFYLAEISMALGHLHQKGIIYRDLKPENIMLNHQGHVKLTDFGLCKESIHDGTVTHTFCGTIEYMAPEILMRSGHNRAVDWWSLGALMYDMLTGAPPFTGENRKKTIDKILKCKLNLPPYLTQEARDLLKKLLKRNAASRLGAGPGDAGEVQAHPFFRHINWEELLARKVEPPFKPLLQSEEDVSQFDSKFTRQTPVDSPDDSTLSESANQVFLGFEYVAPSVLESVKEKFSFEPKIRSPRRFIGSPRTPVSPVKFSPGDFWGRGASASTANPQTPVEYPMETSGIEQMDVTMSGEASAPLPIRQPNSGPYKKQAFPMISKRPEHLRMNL

In order of rising IC50:
1. NCC(c1ccc(C(F)(F)F)cc1)N1CCN(c2ncnc(N)c2-c2ccc(F)cc2)CC1 (stereo not drawn) [Example 2, 6-{4-[2-Amino-1-(4-trifluoromethyl-phenyl)-ethyl]-piperazin-1-yl}-5-(4-fluoro-phenyl)-pyrimidin-4-ylamine]  2.2 nM
2. NC[C@H](c1ccc(C(F)(F)F)cc1)N1CCN(c2ncnc(N)c2-c2ccc(F)cc2)CC1 [Example 3, 6-{4-[(S)-2-Amino-1-(4-trifluoromethyl-phenyl)-ethyl]-piperazin-1-yl}-5-(4-fluoro-phenyl)-pyrimidin-4-ylamine]  2.6 nM
3. NCC(c1ccc(C(F)(F)F)cc1)N1CCN(c2ncnc(N)c2-c2cn[nH]c2)CC1 (stereo not drawn) [Example 7, 6-{4-[2-Amino-1-(4-trifluoromethyl-phenyl)-ethyl]-piperazin-1-yl}-5-(1H-pyrazol-4-yl)-pyrimidin-4-ylamine]  2.8 nM
4. NC[C@@H](c1ccc(C(F)(F)F)cc1)N1CCN(c2ncnc(N)c2-c2ccc(F)cc2)CC1 [Example 4, 6-{4-[(R)-2-Amino-1-(4-trifluoromethyl-phenyl)-ethyl]-piperazin-1-yl}-5-(4-fluoro-phenyl)-pyrimidin-4-ylamine]  4.5 nM
5. NC[C@@H](c1ccc(C(F)(F)F)cc1)C1CCN(c2ncnc(N)c2-c2cn[nH]c2)CC1 (single isomer, unassigned) [Example 57]  4.7 nM
6. NCC(c1ccc(C(F)(F)F)cc1)N1CCN(c2ncnc(N)c2Br)CC1 (stereo not drawn) [Example 1, 6-{4-[2-Amino-1-(4-trifluoromethyl-phenyl)-ethyl]-piperazin-1-yl}-5-bromo-pyrimidin-4-ylamine]  5.8 nM
7. Nc1ncnc(N2CC[C@](N)(CNC(=O)c3ccc(F)cc3F)C2)c1-c1ccc(F)cc1 (single isomer, unassigned) [Example 249]  5.9 nM
8. NCC(c1ccccc1)N1CCN(c2ncnc(N)c2-c2ccc(F)cc2)CC1 (stereo not drawn) [Example 6, 6-[4-(2-Amino-1-phenyl-ethyl)-piperazin-1-yl]-5-(4-fluoro-phenyl)-pyrimidin-4-ylamine]  6.3 nM
9. NC[C@H](c1ccc(C(F)(F)F)cc1)C1CCN(c2ncnc(N)c2-c2cn[nH]c2)CC1 (single isomer, unassigned) [Example 56]  22 nM
10. Nc1ncnc(N2CCN(C(CN3CCCC3)c3ccc(F)cc3)CC2)c1-c1ccc(F)cc1 (stereo in doubt) [Example 82, (R)5-(4-Fluorophenyl)-6{4-[1-(4-fluorophenyl)-2-pyrrolidin-1-yl-ethyl]-piperazin-1-yl}-pyrimidin-4-ylamine]  29 nM
11. NCC(c1ccccc1)N1CCN(c2ncnc(N)c2Br)CC1 (stereo not drawn) [Example 5, 6-[4-(2-Amino-1-phenyl-ethyl)-piperazin-1-yl]-5-bromo-pyrimidin-4-ylamine]  330 nM
12. Nc1ncnc(N2CCN(C(CN3CCCC3)c3ccc(F)cc3)CC2)c1-c1ccc(F)cc1 (stereo in doubt) [Example 83, (S)-5-(4-Fluorophenyl)-6{4-[1-(4-fluorophenyl)-2-pyrrolidin-1-yl-ethyl]-piperazin-1-yl}-pyrimidin-4-ylamine]  1000 nM
13. N#Cc1ccc(C(CN2CCC2)N2CCN(c3ncnc(N)c3-c3cn[nH]c3)CC2)cc1 (single isomer, unassigned) [Example 85, 4-(1-{4-[6-Amino-5-(1H-pyrazol-4-yl)-pyrimidin-4-yl]-piperazin-1-yl}-2-azetidin-1-yl-ethyl)-benzonitrile]  2800 nM
14. COC(=O)c1ccc(C(CN2CCC2)N2CCN(c3ncnc(N)c3-c3cn[nH]c3)CC2)cc1 (single isomer, unassigned) [Example 86, 4-(1-{4-[6-Amino-5-(1H-pyrazol-4-yl)-pyrimidin-4-yl]-piperazin-1-yl}-2-azetidin-1-yl-ethyl)-benzoic acid methyl ester]  6400 nM
15. Nc1ncnc(N2CCN(C(CN3CCC3)c3cccc(F)c3)CC2)c1-c1cn[nH]c1 (single isomer, unassigned) [Example 84, 6-{4-[2-Azetidin-1-yl-1-(3-fluoro-phenyl)-ethyl]-piperazin-1-yl}-5-(1H-pyrazol-4-yl)-pyrimidin-4-ylamine]  15000 nM
